Source: US8105577B1, “Prebiotic composition for increasing probiotic growth rate and activity” (Master Supplements, Inc., priority 2010, dated 2012)

Columns and labels:
Type in all cases: cell-based
[1] = tested on: Lactobacillus acidophilus NCFM (LA-1); test: Growth (turbidity) and lactic acid producing activity in MRS broth, L. acidophilus NCFM; conditions: for pH: 0.1% in MRS (polysorbate 80 1.0 g/liter)
Protocol: (§1) At specified time intervals, a 30 ml sample from each flask was aseptically transferred into a HACH […] Turbidimeter sample cell. The turbidity of each sample was read and the results were reported in NTU's. The same 30 ml sample used for the turbidity reading was transferred into a 250 ml glass beaker, and the pH was recorded. The sample was titrated using 0.1N NaOH to an endpoint of pH 6.8, and the quantity of NaOH used was recorded. The % Lactic Acid was calculated using the following formula: % Lactic Acid=((mls of 0.1N NaOH)×(0.1N)×(90 gm/mole)×(1 L/1000 ml))×100 mls of sample % Lactic Acid=(mls of 0.1N NaOH)×(0.9) (Results reported at 12 hours and 23 hours like: 12/23 in Table I below)

[2] = tested on: Lactobacillus paracasei Lpc-37 (F-19); test: Growth (turbidity) and lactic acid producing activity in MRS broth, L. paracasei Lpc-37
Protocol: as §1, with “Each flask was tempered to 37° C. and aseptically inoculated with 0.14 gm of the individual probiotic strains (in Examples 5 to 10 below) to be tested. At” for “At”, “III” for “I”

[3] = tested on: Lactobacillus rhamnosus Lr-32 (LR-44); test: Growth (turbidity) and lactic acid producing activity in MRS broth, L. rhamnosus Lr-32; conditions: for pH: 0.1% in MRS (polysorbate 80 1.0 g/liter)
Protocol: as §1, with “Each flask was tempered to 37° C. and aseptically inoculated with 0.14 gm of the individual probiotic strains (in Examples 5 to 10 below) to be tested. At” for “At”, “IV” for “I”

[4] = tested on: Lactobacillus salivarius Ls-33 (LS-30); test: Growth (turbidity) and lactic acid producing activity in MRS broth, L. salivarius Ls-33; conditions: for pH: 0.1% in MRS (polysorbate 80 1.0 g/liter)
Protocol: as §1, with “Each flask was tempered to 37° C. and aseptically inoculated with 0.14 gm of the individual probiotic strains (in Examples 5 to 10 below) to be tested. At” for “At”, “V” for “I”

[5] = tested on: THERALAC® Lot #32310A probiotic strains; test: Growth of the commercial probiotic […] in MRS broth (turbidity, lactic acid, pH); conditions: for pH: 0.1% in MRS (polysorbate 80 1.0 g/liter)
Protocol: MRS broth was prepared with (for controls) and without (for tests) polysorbate 80 and filled into 1 liter screw cap flasks at 500 ml each and autoclaved at 121° C. for 30 minutes. Various lecithin and/or oleic acid additives, or nothing (negative control), was added to the tests flasks prior to autoclaving. The flasks were then tempered to 37° C. in a water bath and inoculated at 0.1% with […]® Lot #32310A, a commercial probiotic product (Master Supplements, Inc., Victoria, Minn.). Capsules of […]® were opened and the contents mixed aseptically to serve as the inoculum source. At an inoculation rate of 0.1%, approximately 80 million CFU was added per ml of MRS media. […]® contains (formulation strength) the following probiotic strains at the approximate CFU values listed per gram: Turbidity, pH and titrations (made with 0.1 N NaOH and reported as % lactic acid) were made at various times up to 23 hours. The results are presented below in Table VI for the 12 and 23-hour analyses.

[6] = tested on: Bifidobacterium lactis Bl-04 (BL-34); test: Growth (turbidity) and lactic acid producing activity in MRS broth, B. lactis Bl-04; conditions: 0.1% in MRS (polysorbate 80 1.0 g/liter)
Protocol: as §1, with “Each flask was tempered to 37° C. and aseptically inoculated with 0.14 gm of the individual probiotic strains (in Examples 5 to 10 below) to be tested. At” for “At”, “II” for “I”

[7] = 0.1% in MRS (polysorbate 80 1.0 g/liter), 12 hours

Row | Compound | effectiveness as polysorbate 80 replacement (growth and lactic acid production), in words ([1]; 0.1% inclusion rate in MRS) | effectiveness as polysorbate 80 replacement, in words ([2]; 0.1% inclusion rate in MRS) | effectiveness as polysorbate 80 replacement, in words ([3]; 0.1% inclusion rate in MRS) | effectiveness as polysorbate 80 replacement, in words ([4]; 0.1% inclusion rate in MRS) | effectiveness as polysorbate 80 replacement, in words ([5]; 0.1% inclusion rate in MRS) | pH ([1]; 12 hours) | pH ([1]; 23 hours) | Lactic Acid % ([6]; 12 hours) [%] | pH ([6]; 12 hours) | Lactic Acid % ([6]; 23 hours) [%] | pH ([6]; 23 hours) | Lactic Acid % [2, 7] [%] | pH [2, 7] | pH ([2]; 0.1% in MRS (polysorbate 80 1.0 g/liter), 23 hours) | pH ([3]; 12 hours) | pH ([3]; 23 hours) | pH ([4]; 12 hours) | pH ([4]; 23 hours) | pH ([5]; 12 hours) | pH ([5]; 23 hours)
1 | CCCCCCCC/C=C\CCCCCCCC(=O)O [Oleic Acid, oleic acid] | somewhat effective as a polysorbate 80 replacement but not as effective as either sunflower or soy lecithin | shows an improvement over no polysorbate 80 but is not as effective a replacement for polysorbate 80 as sunflower lecithin | shows an improvement over no polysorbate 80 on the 23-hour test but shows a significant lag phase at 12 hours; it is not as good a replacement for polysorbate 80 as sunflower lecithin | not as good a replacement as a lag phase is apparent at 12 hours | acceptable replacement value for polysorbate 80 but is not as effective as either of the lecithins |  |  |  |  |  |  |  |  |  |  |  |  |  |  | 
2 | polysorbate 80 |  |  |  |  |  | 4.2 | 4.1 | 0.57 | 4.8 | 0.84 | 4.5 | 0.99 | 4.2 | 3.9 | 4.0 | 3.7 | 3.8 | 3.7 | 3.9 | 3.7
